Experimental data taken from the NIST ThermoML archive (doi:10.1021/je060107n).

Assay: mn = molality of the nth substance listed, in mol/kg
Conditions: 101 kPa, Liquid; for viscosity: Capillary tube (Ostwald / Ubbelohde) method; for speed of sound: Linear variable-path acoustic interferometer; for mass density: Pycnometric method

CC(=O)[O-].CC(=O)[O-].[Mg+2] [magnesium acetate] + O
Conditions	mass density [kg/m3]	speed of sound [m/s]	viscosity [mPa·s]
273.15 K, m1 = 0.0414	–	1411.1	1.895
273.15 K, m1 = 0.0831	–	1421.7	1.974
273.15 K, m1 = 0.1671	–	1435.8	2.142
273.15 K, m1 = 0.4247	–	1486.1	2.763
273.15 K, m1 = 0.646	–	1523.6	3.52
273.15 K, m1 = 0.8751	–	1563.5	4.302
273.15 K, m1 = 1.106	–	1599.6	5.537
273.15 K, m1 = 1.354	–	1633.9	7.125
273.15 K, m1 = 1.608	–	1670.3	7.125
273.15 K, m1 = 1.866	–	1705.9	12.12
273.15 K, m1 = 2.134	–	1742.2	16.35
273.15 K, m1 = 2.411	–	1777.1	23.36
273.15 K, m1 = 2.622	–	1797.1	28.17
273.15 K, m1 = 3.043	–	1840.9	45.46
273.15 K, m1 = 3.437	–	1885.2	85.35
273.15 K, m1 = 3.819	–	1910.1	–
273.15 K, m1 = 4.001	–	–	167.7
273.15 K, m1 = 4.547	–	1953.7	–
273.15 K, m1 = 4.563	–	–	374.7
278.15 K, m1 = 0.0414	–	1433.9	1.603
278.15 K, m1 = 0.0831	–	1443.6	1.663
278.15 K, m1 = 0.1671	–	1458.6	1.805
278.15 K, m1 = 0.4247	–	1504.5	2.301
278.15 K, m1 = 0.646	–	1539.4	2.887
278.15 K, m1 = 0.8751	–	1571.6	3.533
278.15 K, m1 = 1.106	–	1611.8	4.511
278.15 K, m1 = 1.354	–	1644.1	5.709
278.15 K, m1 = 1.608	–	1679.6	5.709
278.15 K, m1 = 1.866	–	1713	9.522
278.15 K, m1 = 2.134	–	1746.8	12.57
278.15 K, m1 = 2.411	–	1780.1	17.59
278.15 K, m1 = 2.622	–	1799.2	21.2
278.15 K, m1 = 3.043	–	1839.8	33.22
278.15 K, m1 = 3.437	–	1881.6	59.47
278.15 K, m1 = 3.819	–	1903.6	–
278.15 K, m1 = 4.001	–	–	110.6
278.15 K, m1 = 4.547	–	1945.3	–
278.15 K, m1 = 4.563	–	–	234.4
283.15 K, m1 = 0.0414	–	1453.9	1.374
283.15 K, m1 = 0.0831	–	1464.2	1.423
283.15 K, m1 = 0.1671	–	1477	1.54
283.15 K, m1 = 0.4247	–	1522.7	1.954
283.15 K, m1 = 0.646	–	1553.8	2.444
283.15 K, m1 = 0.8751	–	1584.2	2.956
283.15 K, m1 = 1.106	–	1622.1	3.725
283.15 K, m1 = 1.354	–	1651.4	4.687
283.15 K, m1 = 1.608	–	1685.9	4.687
283.15 K, m1 = 1.866	–	1718.2	7.615
283.15 K, m1 = 2.134	–	1750.4	9.905
283.15 K, m1 = 2.411	–	1781.4	13.67
283.15 K, m1 = 2.622	–	1799.1	16.25
283.15 K, m1 = 3.043	–	1838.2	24.92
283.15 K, m1 = 3.437	–	1877.4	43.12
283.15 K, m1 = 3.819	–	1897.9	–
283.15 K, m1 = 4.001	–	–	77.03
283.15 K, m1 = 4.547	–	1936.1	–
283.15 K, m1 = 4.563	–	–	153.7
283.15 K, m1 = 4.929	–	–	208.4
283.15 K, m1 = 5.165	–	1964.1	–
288.15 K, m1 = 0.0414	–	1471.7	1.196
288.15 K, m1 = 0.0831	–	1481.5	1.238
288.15 K, m1 = 0.1671	–	1494.1	1.335
288.15 K, m1 = 0.4247	–	1535.1	1.677
288.15 K, m1 = 0.646	–	1566.5	2.072
288.15 K, m1 = 0.8751	–	1601.1	2.499
288.15 K, m1 = 1.106	–	1631.4	3.138
288.15 K, m1 = 1.354	–	1659.4	3.895
288.15 K, m1 = 1.608	–	1692.8	3.895
288.15 K, m1 = 1.866	–	1722.3	6.192
288.15 K, m1 = 2.134	–	1752.7	8.005
288.15 K, m1 = 2.411	–	1782.9	10.8
288.15 K, m1 = 2.622	–	1799.1	12.79
288.15 K, m1 = 3.043	–	1835.6	19.07
288.15 K, m1 = 3.437	–	1872.2	31.95
288.15 K, m1 = 3.819	–	1891.9	–
288.15 K, m1 = 4.001	–	–	55.77
288.15 K, m1 = 4.547	–	1927.4	–
288.15 K, m1 = 4.563	–	–	105.5
288.15 K, m1 = 4.929	–	–	140.3
288.15 K, m1 = 5.165	–	1953.3	–
293.15 K, m1 = 0.0414	–	1487.6	1.052
293.15 K, m1 = 0.0831	–	1497.5	1.089
293.15 K, m1 = 0.1671	–	1508.3	1.17
293.15 K, m1 = 0.4247	–	1545.4	1.461
293.15 K, m1 = 0.646	–	1577.8	1.788
293.15 K, m1 = 0.8751	–	1609.8	2.15
293.15 K, m1 = 1.106	–	1639.8	2.678
293.15 K, m1 = 1.354	–	1665.7	3.294
293.15 K, m1 = 1.608	–	1697.3	3.294
293.15 K, m1 = 1.866	–	1725.6	5.143
293.15 K, m1 = 2.134	–	1754.5	6.573
293.15 K, m1 = 2.411	–	1782.6	8.745
293.15 K, m1 = 2.622	–	1798.8	10.25
293.15 K, m1 = 3.043	–	1832.8	14.98
293.15 K, m1 = 3.437	–	1866.8	24.4
293.15 K, m1 = 3.819	–	1884.3	–
293.15 K, m1 = 4.001	–	–	41.34
293.15 K, m1 = 4.547	–	1917.4	–
293.15 K, m1 = 4.563	–	–	75.04
293.15 K, m1 = 4.929	–	–	97.76
293.15 K, m1 = 5.165	–	1940.8	–
293.15 K, m1 = 5.732	–	1954.7	–
294.9 K, m1 = 2.411	1149	–	–
295.15 K, m1 = 0.4247	1029.4	–	–
295.15 K, m1 = 0.8751	1059.6	–	–
295.4 K, m1 = 0.1671	1010.2	–	–
296 K, m1 = 1.354	1089.6	–	–
296.1 K, m1 = 1.866	1118.6	–	–
297.95 K, m1 = 2.411	1147.7	–	–
298.05 K, m1 = 1.106	1074.8	–	–
298.15 K, m1 = 0.0414	–	1501.7	0.9322
298.15 K, m1 = 0.0831	–	1510.4	0.964
298.15 K, m1 = 0.1671	–	1520.6	1.034
298.15 K, m1 = 0.4247	–	1556.9	1.286
298.15 K, m1 = 0.646	–	1587.3	1.566
298.15 K, m1 = 0.8751	–	1616.2	1.873
298.15 K, m1 = 1.106	–	1645.9	2.31
298.15 K, m1 = 1.354	–	1671.1	2.821
298.15 K, m1 = 1.608	–	1700.3	2.821
298.15 K, m1 = 1.866	–	1727.7	4.32
298.15 K, m1 = 2.134	–	1754.6	5.472
298.15 K, m1 = 2.411	–	1781.9	7.183
298.15 K, m1 = 2.622	–	1797.3	8.354
298.15 K, m1 = 3.043	–	1829.5	12.02
298.15 K, m1 = 3.437	–	1861.2	19.05
298.15 K, m1 = 3.819	–	1878	–
298.15 K, m1 = 4.001	–	–	31.38
298.15 K, m1 = 4.547	–	1908	–
298.15 K, m1 = 4.563	–	–	55
298.15 K, m1 = 4.929	–	–	70.36
298.15 K, m1 = 5.165	–	1929.7	–
298.15 K, m1 = 5.41	–	–	141.2
298.15 K, m1 = 5.732	–	1940.2	–
298.3 K, m1 = 3.043	1175	–	–
298.7 K, m1 = 2.134	1132.2	–	–
298.75 K, m1 = 0.0831	1003.1	–	–
298.8 K, m1 = 3.437	1195.5	–	–
298.85 K, m1 = 0.646	1044	–	–
298.95 K, m1 = 0.8751	1058.5	–	–
299.15 K, m1 = 0.4247	1028.4	–	–
299.2 K, m1 = 2.622	1155.8	–	–
299.3 K, m1 = 1.866	1117.5	–	–
299.55 K, m1 = 5.732	1267.4	–	–
299.6 K, m1 = 0.1671	1009.1	–	–
299.65 K, m1 = 1.354	1088.4	–	–
300.6 K, m1 = 1.608	1103.6	–	–
300.85 K, m1 = 0.0414	999.3	–	–
301 K, m1 = 2.411	1146.5	–	–
301.05 K, m1 = 3.043	1173.8	–	–
301.35 K, m1 = 1.327	1086.4	–	–
301.5 K, m1 = 3.437	1194.2	–	–
301.55 K, m1 = 2.134	1131.1	–	–
301.7 K, m1 = 1.106	1073.7	–	–
301.75 K, m1 = 5.732	1266	–	–
302.05 K, m1 = 2.622	1154.6	–	–
302.05 K, m1 = 3.819	1205.9	–	–
302.25 K, m1 = 0.646	1043	–	–
302.4 K, m1 = 1.866	1116.3	–	–
302.4 K, m1 = 5.165	1249.6	–	–
302.5 K, m1 = 0.0831	1002	–	–
302.55 K, m1 = 0.8751	1057.4	–	–
302.7 K, m1 = 1.354	1087.4	–	–
302.75 K, m1 = 0.4247	1027.2	–	–
302.95 K, m1 = 4.547	1229.9	–	–
303.15 K, m1 = 0.0414	–	1513.4	0.835
303.15 K, m1 = 0.0831	–	1521.5	0.8624
303.15 K, m1 = 0.1671	–	1532.2	0.9234
303.15 K, m1 = 0.4247	–	1567.4	1.141
303.15 K, m1 = 0.646	–	1595.7	1.383
303.15 K, m1 = 0.8751	–	1625.4	1.64
303.15 K, m1 = 1.106	–	1651.6	2.014
303.15 K, m1 = 1.354	–	1676.1	2.446
303.15 K, m1 = 1.608	–	1703	2.446
303.15 K, m1 = 1.866	–	1728.9	3.688
303.15 K, m1 = 2.134	–	1755.5	4.619
303.15 K, m1 = 2.411	–	1781.3	6.056
303.15 K, m1 = 2.622	–	1795.2	6.928
303.15 K, m1 = 3.043	–	1824.8	9.798
303.15 K, m1 = 3.437	–	1855.5	15.2
303.15 K, m1 = 3.819	–	1870.5	–
303.15 K, m1 = 4.001	–	–	24.27
303.15 K, m1 = 4.547	–	1899.1	–
303.15 K, m1 = 4.563	–	–	41.02
303.15 K, m1 = 4.929	–	–	51.77
303.15 K, m1 = 5.165	–	1919	–
303.15 K, m1 = 5.41	–	–	99.4
303.15 K, m1 = 5.732	–	1926.8	135.8
303.3 K, m1 = 0.1671	1008	–	–
303.65 K, m1 = 1.608	1102.5	–	–
303.75 K, m1 = 2.411	1145.4	–	–
303.75 K, m1 = 3.043	1172.5	–	–
303.75 K, m1 = 5.732	1264.8	–	–
303.9 K, m1 = 3.437	1193.1	–	–
304.4 K, m1 = 3.819	1204.7	–	–
304.45 K, m1 = 0.0414	998.24	–	–
304.55 K, m1 = 2.134	1129.8	–	–
304.6 K, m1 = 5.165	1248.3	–	–
304.7 K, m1 = 1.327	1085.2	–	–
304.8 K, m1 = 2.622	1153.3	–	–
304.95 K, m1 = 1.106	1072.5	–	–
305.35 K, m1 = 4.547	1228.6	–	–
